The target in one test is T1, β1-adrenergic receptor (Rattus norvegicus, UniProt P18090).
T1 construct: membranes from rat heart; from tissue; host or cells: rat heart membranes
Briefly: Heart membrane binding (β1-effect), [125I]iodocyanopindolol. To be noted: rat heart membranes, 1 hour. The text has this: (§1) β-Adrenergic receptors can be divided into β1, β2 and β 3-subtypes. Activation of β1 -receptors invokes increases in heart rate while activation of β2 -receptors stimulates glycogen breakdown in muscle and thereby prevents glycogen synthesis. Activation of β3 -receptors stimulates lipolysis (the breakdown of adipose tissue triglycerides to glycerol and free fatty acids), and thereby promotes the loss of fat mass. Ccmpounds that stimulate β3 -receptors will have antiobesity activity. In addition, they have hypoglycemic or anti-diabetic activity, but the mechanism of this effect is unknown. A compound that selectively stimulates β3 -receptors, i.e. has little or no β1 or β2 -activity, will have the desired anti-diabetic and/or anti-obesity activity, but without the undesired effects of increased heart rate (β1 -effect) or muscle tremor (β2 -effect).
(§2) Selectivity of a compound is determined using the following procedures.
Binding assays for β1 -effect are carried out by the use of membranes from rat heart, and β2 -effect by the use of membranes from rat lung by the method described in Neve, et al., J. Pharmacol. Exp. Ther., 1985, 235, 657-664 with the following exceptions:
1. the incubation volume is 0.5 ml,
2. the incubation time is 1 hour,
3. the radioligand is [^125 I]iodocyanopindolol,
4. (-)-isoproterenol (50 μM) is used to define specific binding, and
5. the filters are washed at 4° C.

Another test deals with T2, β3-adrenergic receptor (Rattus norvegicus, UniProt P26255).
T2 construct: Rat epididymal fat pads are excised and placed in 0.9% saline; from tissue; host or cells: adipocytes isolated by collagenase from rat epididymal fat pads
T2 sequence (P26255 whole entry): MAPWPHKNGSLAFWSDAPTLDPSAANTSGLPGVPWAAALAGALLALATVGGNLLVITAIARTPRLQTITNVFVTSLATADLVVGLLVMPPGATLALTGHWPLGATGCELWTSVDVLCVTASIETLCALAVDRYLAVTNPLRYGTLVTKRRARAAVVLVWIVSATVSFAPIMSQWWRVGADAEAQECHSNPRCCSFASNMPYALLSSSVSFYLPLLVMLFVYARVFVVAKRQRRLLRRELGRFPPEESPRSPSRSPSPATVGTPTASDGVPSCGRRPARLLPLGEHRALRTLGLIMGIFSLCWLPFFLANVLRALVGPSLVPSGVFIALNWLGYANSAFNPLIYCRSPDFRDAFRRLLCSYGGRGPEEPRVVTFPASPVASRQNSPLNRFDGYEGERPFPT
The test is described as follows: Stimulation of adipocyte lipolysis (β3-effect), glycerol generated. The test is classed as cell-based. The conditions noted are these: rat epididymal adipocytes, 30 min at 37° C.; concentration giving 50% of the compound's own maximum rate of lipolysis; read-out: Lipolysis (beta3)(EC50 nM).
Description: as §1, §2
The β3 -effect of the compounds is determined by their ability to stimulate adipocyte lipolysis. Rat epididymal fat pads are excised and placed in 0.9% saline. Four grams of tissue is transferred to a flask with 20 ml of aerated Krebs-Henseleit bicarbonate (KHB) buffer containing 3% fatty acid-free bovine serum albumin to which 75 mg of crude bacterial collagenase (Worthington) has been added. The tissue is incubated for about 45 minutes at 37° C. with gentle shaking. The cells are then washed three times with two volumes of KHB buffer, filtered through two layers of gauze, and brought to a final volume of 80 ml with KHB buffer. One ml aliquots of the cell suspension is added to plastic test tubes containing the appropriate additions of vehicle or compound. The cells are gassed for 1 minute with 95%O2 -5%CO2, capped, and incubated at 37° C. with continuous shaking for a total of 30 minutes. The reaction is stopped by adding 0.1 ml of 30% perchloric acid and 0.1 ml of chloroform. After centrifugation, 0.5 ml of supernatant is transferred to another test tube and neutralized with 0.04 ml of 3M K2 CO3 -0.5M triethanolamine. The amount of glycerol generated from the hydrolysis of endogenous triglycerides is determined in a coupled-enzyme spectrophotometric assay. One-tenth milliliter of the neutralized extract is added to a test tube that contains 0.91 ml of assay mixture comprised of the following: 0.84M glycine, 0.42M hydrazine sulfate, 4.2 mM EDTA, 0.9 mM β-NAD, 9.9 mM MgCl2, 1 mM ATP, 17 U of glycerophosphate dehydrogenase, and 4.3 U of glycerokinase. The test tubes are incubated for 40 minutes at 37° C. with constant shaking. The amount of NADH generated, which is proportional to the amount of glycerol, is determined by the increase in absorbance at 340 nm. […]

Where a name gives a salt, the structure may show the parent alone.

T1 sequence (P18090 whole entry): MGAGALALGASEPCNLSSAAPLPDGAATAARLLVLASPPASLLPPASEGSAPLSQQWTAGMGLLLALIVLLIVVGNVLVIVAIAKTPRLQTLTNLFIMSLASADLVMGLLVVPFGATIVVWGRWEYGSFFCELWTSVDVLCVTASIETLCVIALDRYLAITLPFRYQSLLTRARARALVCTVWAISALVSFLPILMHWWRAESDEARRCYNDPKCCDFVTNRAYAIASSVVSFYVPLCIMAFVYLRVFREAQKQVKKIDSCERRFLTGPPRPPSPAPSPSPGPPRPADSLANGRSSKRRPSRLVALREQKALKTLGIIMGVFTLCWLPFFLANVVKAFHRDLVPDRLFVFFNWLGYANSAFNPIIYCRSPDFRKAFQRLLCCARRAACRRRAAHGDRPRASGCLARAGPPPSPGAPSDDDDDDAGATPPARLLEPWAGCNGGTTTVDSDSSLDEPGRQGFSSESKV

Broadly, the IC50 is the point on the concentration scale where inhibition reaches its midpoint. A low value points to inhibition by little substance. A word on the EC50: it is the concentration needed to bring the measured effect to its halfway point. With `O=C(O)C1(C(=O)O)Oc2ccc3c(c2O1)C[C@@H](NC[C@H](O)c1cccc(Cl)c1)C3` [Example 3, [R-(R*,R* or R*,S*)]7-[[2-(3-Chlorophenyl)-2-hydroxyethyl]amino]-7,8-dihydro-6H-indeno[4,5-d]-1,3-dioxole-2,2-dicarboxylic acid disodium salt], at β1-adrenergic receptor, the IC50 was above 1000 nM. Further, the concentration for a half-maximal effect (EC50) on β3-adrenergic receptor amounted to 2590 nM.

`O=C(O)C1(C(=O)O)Oc2ccc3c(c2O1)C[C@H](NC[C@H](O)c1cccc(Cl)c1)C3` [Example 4, [R-(R*,R* or R*,S*)]-7-[[2-(3-Chlorophenyl)-2-hydroxyethyl]amino]-7,8-dihydro-6H-indeno[4,5-d]-1,3-dioxole-2,2-dicarboxylic acid disodium salt] yielded an IC50 on β1-adrenergic receptor above 1000 nM. Besides, the EC50 at β3-adrenergic receptor is 14.6 nM.

As to `O=C(O)C1(C(=O)O)Oc2cc3c(cc2O1)CC(NC[C@H](O)c1cccc(Cl)c1)C3` [Example 5, (R)-7-[[2-(3-Chlorophenyl)-2-hydroxyethyl]amino]7,8-dihydro-6H-indeno[5,6-d]-1,3-dioxole-2,2-dicarboxylic acid disodium salt], the IC50 on β1-adrenergic receptor is above 1000 nM. For the same compound, the EC50 at β3-adrenergic receptor is 100 nM.

On to `O=C(O)C1(C(=O)O)Oc2cc3c(cc2O1)CC(NCC(O)c1cccc(Cl)c1)CC3` (stereo not drawn) [Example 7, (R*,R*), and (R*,S*)-6-[[2-(3-Chlorophenyl)-2-hydroxyethyl]amino]-5,6,7,8-tetrahydronaphtho[2,3-d]-1,3-dioxole-2,3-dicarboxylic acid disodium salt], for which the IC50 on β1-adrenergic receptor was above 1000 nM. For the same compound, on β3-adrenergic receptor, the concentration for a half-maximal effect (EC50) stood at 4000 nM.

Source of the values: patent US5594027A, “Aminocycloalkanobenzodioxoles as beta-3 selective adrenergic agents” (American Cyanamid Company, priority 1995, dated 1997).
